One may read the IC50 as the point on the concentration scale where inhibition reaches its midpoint.

These results are taken from article PMC5585240, “NF-κB inhibitors, unique γ-pyranol-γ-lactams with sulfide and sulfoxide moieties from Hawaiian plant Lycopodiella cernua derived fungus Paraphaeosphaeria neglecta FT462” (Scientific Reports, 2017).

In one data set the test system is NF-κB. In words: TNF-α-induced NF-κB luciferase reporter assay in human embryonic kidney cells 293. The data set is classed as cell-based. To be noted: 293 cells, 6 h, read-out: NF-κB inhibition IC50. The method, then: We employed human embryonic kidney cells 293, Panomic for monitoring changes occurring along the NF-κB pathway. Stable constructed cells were seeded into 96-well plates at 20 × 10^3 cells per well. Cells were maintained in Dulbecco’s modified Eagle’s medium (DMEM) (Invitrogen Co.), supplemented with 10% FBS, 100 units/mL penicillin, 100 μg/mL streptomycin, and 2 mM L-glutamine. After 48 h incubation, the medium was replaced and the cells were treated with various concentrations of test substances. TNF-α (human, recombinant, E. coli, Calbiochem) was used as an activator at a concentration of 2 ng/mL (0.14 nM). The plate was incubated for 6 h. Spent medium was discarded, and the cells were washed once with PBS. Cells were lysed using 50 μL (for 96-well plate) of reporter lysis buffer from Promega by incubating for 5 min on a shaker, and stored at −80 °C. The luciferase assay was performed using the Luc assay system from Promega. The gene product, luciferase enzyme, reacts with luciferase substrate, emitting light, which was detected using a luminometer (LUMIstar Galaxy BMG). Data for NF-κB inhibition are expressed as IC50 values (i.e., concentration required to inhibit TNFinduced NF-kB activity by 50%). The known NF-κB inhibitor TPCK was used as a positive control.
(In general: Reporter assays use an easily measured gene product as a stand-in for the process of interest.)

Data set [1] can be described thus: Cytotoxicity under the same conditions as the NF-κB assay. The data set is classed as cell-based. To be noted: human.
The subject of another data set is iNOS. In words: Nitric oxide (iNOS) assay in LPS-stimulated RAW 264.7 cells, Griess reagent. The data set is classed as cell-based. To be noted: Mus musculus, RAW264.7; lipopolysaccharide-stimulated (1 μg/mL, 20 h) RAW 264.7 cells, nitrite; read-out: iNOS inhibition IC50. As to the method:
RAW 264.7 cells (1 × 10^4 cells/well) were seeded and incubated in 96-well culture plates at 37 °C, 5% CO2 in humidified air for 24 h. Then, complete medium was replaced with phenol red-free medium containing various concentrations of the test compounds, followed by LPS stimulation (1 μg/mL) for 20 h. The nitrite released in the culture media was reacted with Griess reagent, and the absorbance was measured at 540 nm. The amount of nitrite was calculated using a standard curve of known nitrite concentration versus absorbance at 540 nm. TPCK was used as a positive control. IC50 values were calculated using Table Curve 2D Windows V4.07 by AISN Software Inc[44].
A general note: The Griess reaction detects nitrite, a stable product of nitric oxide.

Data set [2] in a line: Cytotoxicity in the iNOS assay. The class given is cell-based. To be noted: mouse, RAW 264.7 cells.
The next data set concerns E. coli JW2496 (∆bamB). In words: Antibacterial microbroth dilution assay. The following applies: 20 μg/mL (maximum test concentration). The class given is cell-based. As to the method: MIC values were determined against E. coli JW2496 (∆bamB) and other bacteria using the standard microbroth dilution method exactly as previously described, which is based on the methods by the Clinical and Laboratory Standards Institute[41], [42]. The maximum test concentration used was 20 μg/mL.
Background: In broth dilution the organism is exposed to a series of concentrations in liquid medium.

The subject of a further data set is STAT3. Also on record: method as in PMID 26107089, PMID 16928075. The following applies: cited from earlier work.
[3] abbreviates: Homo sapiens, HEK293, TNF-α (2 ng/mL) induced NF-κB activity.

Each structure is given as a SMILES string. Entries after “also recorded” stand apart in the source; their conditions may differ. Read-outs that look alike come from different tables or passages of the source.

Regarding `CCCCC[C@@H]1OC2=C(C(=O)N(OC)[C@@H]2CSC[C@@H](O)C(=O)O)[C@H](O)[C@@]1(C)O` [Compound 1, Paraphaeosphaeride E], the figures for the IC50 in the data set with NF-κB (setting [3]) and in the data set with iNOS were 7.1 µM and 47.9 ± 0.03 µM, respectively. The IC50 at 6 h in data set [1] is above 50 µM. This compound also displayed an IC50 at 20 h in data set [2] above 50 µM. Moreover, the “inhibition of E. coli JW2496” value in the data set with E. coli JW2496 (∆bamB) was “mildly inhibited”.

Regarding `CCCCC[C@@H]1OC2=C(C(=O)N(OC)[C@@H]2CSC[C@@H](O)C(=O)O)[C@@H](O)[C@@]1(C)O` [Compound 2, Paraphaeosphaeride F], the half-inhibitory concentration (IC50) at 6 h in data set [1] was above 50 µM. Also, in the data set on iNOS, the IC50 was 43.2 ± 0.7 µM. In data set [2], this compound showed an IC50 at 20 h above 50 µM.

Take `CCCCC[C@@H]1OC2=C(C(=O)N(OC)[C@@H]2C[S@+]([O-])C[C@@H](O)C(=O)O)[C@H](O)[C@@]1(C)O` [Compound 3, Paraphaeosphaeride G]: the IC50 with NF-κB (setting [3]) was 1.5 µM; in the data set with iNOS it was 16.1 ± 6.6 µM. Moreover, the IC50 at 6 h in data set [1] was above 50 µM. This compound also had an IC50 at 20 h in data set [2] above 50 µM.

Turning to `Cc1ccc(S(=O)(=O)N[C@@H](Cc2ccccc2)C(=O)CCl)cc1` [TPCK, N α-tosyl-l-phenylalanine chloromethyl ketone, reference compound], the IC50 in the data set on NF-κB (TNF-α (2 ng/mL) induced NF-κB activity) was determined as 4.09 ± 0.12 µM.

Consider `[H]/N=C(/NC)NCCC[C@H](N)C(=O)O` [l-NMMA, Na-l- monomethyl arginine, reference compound], for which the IC50 in the data set with iNOS came out at […].

Turning to `C=C1C2=C(C(=O)N1OC)[C@H](O)[C@@](C)(O)[C@H](CCCCC)O2` [phaeosphaeride A], in the data set with STAT3, the STAT3 inhibition entry is “showed STAT3 inhibition; also recorded: showed STAT3 inhibitory activity”.
